Results from PMC6887723, “Design and Synthesis of 4-(Heterocyclic Substituted Amino)-1H-Pyrazole-3-Carboxamide Derivatives and Their Potent Activity against Acute Myeloid Leukemia (AML)” (International Journal of Molecular Sciences, 2019).

Experiments:
Assay in all cases: Hot-Spot kinase profiling
Format in all cases: biochemical
ABL1 = biological target: T1, ABL1 (Homo sapiens, UniProt P00519); conditions: read-out: % Enzyme Activity (Relative to DMSO Controls) ABL1
T1 construct: purchased Reaction Biology Corp. (HotSpot kinase assay)
Procedure: (§1) Activities of kinases were determined using Hot-SpotSM kinase assay which was performed by Reaction Biology Corp. (Malvern PA, USA) as described previously.

Aurora B = biological target: T2, Aurora B (Homo sapiens, UniProt Q96GD4); conditions: read-out: % Enzyme Activity (Relative to DMSO Controls) Aurora B
T2 construct: purchased Reaction Biology Corp. (HotSpot kinase assay)
Procedure: as §1

JAK2 = biological target: T3, JAK2 (Homo sapiens, UniProt O60674); conditions: read-out: % Enzyme Activity (Relative to DMSO Controls) JAK2
T3 construct: purchased Reaction Biology Corp
Procedure: as §1

c-Src = biological target: T4, c-Src (Homo sapiens, UniProt P12931); conditions: read-out: % Enzyme Activity (Relative to DMSO Controls) c-Src
T4 construct: purchased Reaction Biology Corp. (HotSpot kinase assay)
Procedure: as §1

CDK7/cyclin H = biological target: T5, CDK7/cyclin H (Homo sapiens, UniProt P50613)
T5 construct: purchased Reaction Biology Corp
Procedure: as §1

BTK = biological target: T6, BTK (Homo sapiens, UniProt Q06187); conditions: read-out: % Enzyme Activity (Relative to DMSO Controls) BTK
T6 construct: purchased Reaction Biology Corp. (HotSpot kinase assay)
Procedure: as §1

BRAF = biological target: T7, BRAF (Homo sapiens, UniProt P15056); conditions: read-out: % Enzyme Activity (Relative to DMSO Controls) BRAF
T7 construct: purchased Reaction Biology Corp. (HotSpot kinase assay)
Procedure: as §1

JNK1 = biological target: T8, JNK1 (Homo sapiens, UniProt P45983); conditions: read-out: % Enzyme Activity (Relative to DMSO Controls) JNK1
T8 construct: purchased Reaction Biology Corp. (Malvern PA, USA)
Procedure: as §1

CDK5/p35 = biological target: T9, CDK5/p35 (Homo sapiens, UniProt Q00535)
T9 construct: purchased Reaction Biology Corp
Procedure: as §1

FLT3 (F594_R595insREY) = biological target: T10, FLT3 (F594_R595insREY) (Homo sapiens, UniProt P36888, INS594REY)
T10 construct: purchased Reaction Biology Corp
Procedure: as §1

FLT3 (D835Y) = biological target: T11, FLT3 (D835Y) (Homo sapiens, UniProt P36888, D835Y)
T11 construct: purchased Reaction Biology Corp
Procedure: as §1

SYK = biological target: T12, SYK (Homo sapiens, UniProt P43405); conditions: read-out: % Enzyme Activity (Relative to DMSO Controls) SYK
T12 construct: purchased Reaction Biology Corp. (Malvern PA, USA)
Procedure: as §1

Aurora A = biological target: T13, Aurora A (Homo sapiens, UniProt O14965); conditions: read-out: % Enzyme Activity (Relative to DMSO Controls) Aurora A
T13 construct: purchased Reaction Biology Corp. (HotSpot kinase assay)
Procedure: as §1

FLT4/VEGFR3 = biological target: T14, FLT4/VEGFR3 (Homo sapiens, UniProt P35916)
T14 construct: purchased Reaction Biology Corp
Procedure: as §1

ERK7/MAPK15 = biological target: T15, ERK7/MAPK15 (Homo sapiens, UniProt Q8TD08)
T15 construct: purchased Reaction Biology Corp
Procedure: as §1

FLT3 (F594_R595insR) = biological target: T16, FLT3 (F594_R595insR) (Homo sapiens, UniProt P36888, INS594R)
T16 construct: purchased Reaction Biology Corp
Procedure: as §1

FLT3 (ITD)-W51 = biological target: T17, FLT3 (ITD)-W51 (Homo sapiens, UniProt P36888, DUP595-601)
T17 construct: purchased Reaction Biology Corp
Procedure: as §1

FLT1/VEGFR1 = biological target: T18, FLT1/VEGFR1 (Homo sapiens, UniProt P17948)
T18 construct: purchased Reaction Biology Corp
Procedure: as §1

[1] = biological target: T19, FLT3 (Y591-V592insVDFREYEYD) (Homo sapiens, UniProt P36888, INS591VDFREYEYD)
T19 construct: purchased Reaction Biology Corp
Procedure: as §1

c-MET = biological target: T20, c-MET (Homo sapiens, UniProt P08581); conditions: read-out: % Enzyme Activity (Relative to DMSO Controls) c-MET
T20 construct: purchased Reaction Biology Corp. (HotSpot kinase assay)
Procedure: as §1

T14 sequence (P35916 25-1363): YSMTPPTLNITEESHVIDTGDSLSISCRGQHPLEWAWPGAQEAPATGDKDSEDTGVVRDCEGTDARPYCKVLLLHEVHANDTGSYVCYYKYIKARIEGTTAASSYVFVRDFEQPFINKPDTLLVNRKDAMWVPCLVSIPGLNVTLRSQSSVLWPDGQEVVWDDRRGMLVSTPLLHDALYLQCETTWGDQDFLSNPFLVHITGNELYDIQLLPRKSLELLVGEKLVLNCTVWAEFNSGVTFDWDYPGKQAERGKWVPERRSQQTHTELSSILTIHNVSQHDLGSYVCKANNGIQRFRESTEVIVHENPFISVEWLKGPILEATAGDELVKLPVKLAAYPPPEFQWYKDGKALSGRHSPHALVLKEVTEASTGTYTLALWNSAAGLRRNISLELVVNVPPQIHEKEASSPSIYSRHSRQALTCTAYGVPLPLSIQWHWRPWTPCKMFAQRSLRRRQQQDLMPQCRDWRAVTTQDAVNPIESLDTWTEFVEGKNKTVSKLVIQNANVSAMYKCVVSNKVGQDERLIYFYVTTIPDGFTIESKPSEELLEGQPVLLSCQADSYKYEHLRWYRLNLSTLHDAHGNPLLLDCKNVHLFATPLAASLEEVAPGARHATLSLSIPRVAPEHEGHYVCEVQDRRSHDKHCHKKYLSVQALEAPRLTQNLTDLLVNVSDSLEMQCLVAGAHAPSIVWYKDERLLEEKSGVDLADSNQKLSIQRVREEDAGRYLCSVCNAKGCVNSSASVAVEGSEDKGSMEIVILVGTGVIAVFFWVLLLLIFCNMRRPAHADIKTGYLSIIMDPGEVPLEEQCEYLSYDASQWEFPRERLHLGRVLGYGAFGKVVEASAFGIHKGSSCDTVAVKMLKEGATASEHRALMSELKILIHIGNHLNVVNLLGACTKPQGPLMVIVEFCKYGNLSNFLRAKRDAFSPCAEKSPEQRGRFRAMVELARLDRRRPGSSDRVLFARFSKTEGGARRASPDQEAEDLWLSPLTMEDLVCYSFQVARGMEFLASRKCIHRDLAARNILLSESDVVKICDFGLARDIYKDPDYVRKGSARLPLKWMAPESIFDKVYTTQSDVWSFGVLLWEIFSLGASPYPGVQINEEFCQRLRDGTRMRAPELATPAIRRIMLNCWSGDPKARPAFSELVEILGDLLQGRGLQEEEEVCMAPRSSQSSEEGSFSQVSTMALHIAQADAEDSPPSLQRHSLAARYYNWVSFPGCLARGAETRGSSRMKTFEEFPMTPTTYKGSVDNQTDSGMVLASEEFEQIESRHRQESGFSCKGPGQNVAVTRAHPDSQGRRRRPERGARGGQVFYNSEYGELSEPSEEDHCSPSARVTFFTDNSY
T18 sequence (P17948 27-1338): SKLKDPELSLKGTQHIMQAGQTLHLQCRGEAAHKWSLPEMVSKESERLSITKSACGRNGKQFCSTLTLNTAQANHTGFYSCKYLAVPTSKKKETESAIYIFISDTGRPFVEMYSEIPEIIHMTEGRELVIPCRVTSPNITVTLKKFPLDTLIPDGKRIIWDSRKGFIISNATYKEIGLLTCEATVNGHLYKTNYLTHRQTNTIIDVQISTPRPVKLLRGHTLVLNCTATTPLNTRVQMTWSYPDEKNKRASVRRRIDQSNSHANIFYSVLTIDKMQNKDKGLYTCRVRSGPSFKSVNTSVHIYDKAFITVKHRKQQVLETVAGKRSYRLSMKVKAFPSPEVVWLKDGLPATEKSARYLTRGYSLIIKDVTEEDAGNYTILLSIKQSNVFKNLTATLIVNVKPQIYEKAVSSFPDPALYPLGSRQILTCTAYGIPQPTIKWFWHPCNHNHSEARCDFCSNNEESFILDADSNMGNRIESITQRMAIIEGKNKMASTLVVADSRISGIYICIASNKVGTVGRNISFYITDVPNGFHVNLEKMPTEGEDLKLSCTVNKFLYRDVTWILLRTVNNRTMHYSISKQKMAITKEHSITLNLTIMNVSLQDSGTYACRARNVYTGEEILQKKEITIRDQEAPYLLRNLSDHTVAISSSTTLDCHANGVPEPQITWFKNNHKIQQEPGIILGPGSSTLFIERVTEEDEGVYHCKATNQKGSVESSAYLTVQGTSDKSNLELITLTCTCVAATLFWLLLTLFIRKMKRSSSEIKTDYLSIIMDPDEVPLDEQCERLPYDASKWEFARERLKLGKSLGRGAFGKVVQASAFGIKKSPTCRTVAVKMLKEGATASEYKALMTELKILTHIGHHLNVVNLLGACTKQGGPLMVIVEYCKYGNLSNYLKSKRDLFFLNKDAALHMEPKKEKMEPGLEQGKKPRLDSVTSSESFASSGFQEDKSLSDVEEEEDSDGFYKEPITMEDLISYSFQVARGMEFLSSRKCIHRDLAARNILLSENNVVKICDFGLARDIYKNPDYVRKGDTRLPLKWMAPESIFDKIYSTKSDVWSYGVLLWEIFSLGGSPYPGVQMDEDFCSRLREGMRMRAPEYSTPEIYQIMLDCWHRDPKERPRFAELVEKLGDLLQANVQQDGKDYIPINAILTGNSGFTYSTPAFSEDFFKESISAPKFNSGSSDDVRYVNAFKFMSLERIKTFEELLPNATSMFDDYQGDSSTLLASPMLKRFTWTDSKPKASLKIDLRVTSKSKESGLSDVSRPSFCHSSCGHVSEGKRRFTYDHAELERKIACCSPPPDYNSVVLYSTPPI
T9 sequence (Q00535 whole entry): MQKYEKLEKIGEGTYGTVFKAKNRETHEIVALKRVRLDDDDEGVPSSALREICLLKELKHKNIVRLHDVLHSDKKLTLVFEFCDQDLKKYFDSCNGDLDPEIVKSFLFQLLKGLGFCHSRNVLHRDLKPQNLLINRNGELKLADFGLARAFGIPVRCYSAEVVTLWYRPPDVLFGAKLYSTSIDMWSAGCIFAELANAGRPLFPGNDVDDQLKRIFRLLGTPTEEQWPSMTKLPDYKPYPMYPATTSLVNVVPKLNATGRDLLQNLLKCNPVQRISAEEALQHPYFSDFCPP
T9 sequence (Q15078 whole entry partner): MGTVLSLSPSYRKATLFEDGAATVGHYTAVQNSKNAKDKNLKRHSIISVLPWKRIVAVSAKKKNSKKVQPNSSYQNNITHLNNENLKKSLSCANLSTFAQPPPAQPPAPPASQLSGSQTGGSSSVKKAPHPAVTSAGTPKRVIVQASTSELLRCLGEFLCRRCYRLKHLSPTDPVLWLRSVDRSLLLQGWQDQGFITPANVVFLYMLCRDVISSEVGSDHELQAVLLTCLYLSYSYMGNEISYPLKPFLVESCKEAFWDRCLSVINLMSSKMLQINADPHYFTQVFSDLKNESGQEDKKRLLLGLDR
T15 sequence (Q8TD08 whole entry): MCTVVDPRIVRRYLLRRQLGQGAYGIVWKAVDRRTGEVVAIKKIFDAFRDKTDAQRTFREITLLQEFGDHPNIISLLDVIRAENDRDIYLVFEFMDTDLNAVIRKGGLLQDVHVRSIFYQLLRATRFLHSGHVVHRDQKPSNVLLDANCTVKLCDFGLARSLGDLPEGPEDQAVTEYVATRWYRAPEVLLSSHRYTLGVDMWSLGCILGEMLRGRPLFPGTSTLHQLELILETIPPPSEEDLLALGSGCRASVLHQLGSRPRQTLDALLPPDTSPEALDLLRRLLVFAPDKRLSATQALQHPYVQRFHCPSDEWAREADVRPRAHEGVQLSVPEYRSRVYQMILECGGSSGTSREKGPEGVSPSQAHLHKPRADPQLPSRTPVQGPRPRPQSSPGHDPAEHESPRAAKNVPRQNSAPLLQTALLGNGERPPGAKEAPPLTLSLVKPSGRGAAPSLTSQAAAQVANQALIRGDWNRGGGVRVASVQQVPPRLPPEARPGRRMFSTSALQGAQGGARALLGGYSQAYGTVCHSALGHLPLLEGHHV
T5 sequence (P50613 whole entry): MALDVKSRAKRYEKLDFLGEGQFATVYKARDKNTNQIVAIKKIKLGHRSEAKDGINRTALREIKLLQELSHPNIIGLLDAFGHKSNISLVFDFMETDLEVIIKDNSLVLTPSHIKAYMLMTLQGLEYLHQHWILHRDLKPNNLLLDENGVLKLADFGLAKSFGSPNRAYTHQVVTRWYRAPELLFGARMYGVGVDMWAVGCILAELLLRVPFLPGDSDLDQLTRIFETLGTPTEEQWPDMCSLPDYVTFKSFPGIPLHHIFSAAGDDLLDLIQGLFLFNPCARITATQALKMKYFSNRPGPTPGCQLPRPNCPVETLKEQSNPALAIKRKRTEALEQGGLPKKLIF
T5 sequence (P51946 whole entry partner): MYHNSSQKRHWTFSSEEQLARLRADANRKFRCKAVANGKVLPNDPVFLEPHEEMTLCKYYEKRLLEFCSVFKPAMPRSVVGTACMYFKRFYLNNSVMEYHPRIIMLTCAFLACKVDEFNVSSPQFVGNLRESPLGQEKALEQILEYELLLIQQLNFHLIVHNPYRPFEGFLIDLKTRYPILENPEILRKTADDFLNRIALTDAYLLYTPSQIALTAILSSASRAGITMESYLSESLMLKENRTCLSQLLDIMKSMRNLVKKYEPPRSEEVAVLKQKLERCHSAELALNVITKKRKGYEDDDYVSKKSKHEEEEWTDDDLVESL
T5 sequence (P51948 whole entry partner): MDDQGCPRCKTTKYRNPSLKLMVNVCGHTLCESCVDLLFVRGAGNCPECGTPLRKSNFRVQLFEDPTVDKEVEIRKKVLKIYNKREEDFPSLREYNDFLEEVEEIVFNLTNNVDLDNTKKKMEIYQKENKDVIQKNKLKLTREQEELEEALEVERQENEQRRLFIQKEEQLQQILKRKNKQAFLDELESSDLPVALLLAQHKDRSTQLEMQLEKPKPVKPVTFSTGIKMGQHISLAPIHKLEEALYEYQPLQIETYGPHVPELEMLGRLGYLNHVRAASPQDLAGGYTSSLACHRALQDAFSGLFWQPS

O=C(Nc1ccc(N2CCNCC2)cc1)c1n[nH]cc1Nc1ncnc2sc3c(c12)CCC3 [Compound 8t]
remaining activity at 0.15 µM (ABL1): 81%
remaining activity at 0.15 µM (Aurora B): 55.3%
remaining activity at 0.15 µM (JAK2): 32%
remaining activity at 0.15 µM (c-Src): 73.8%
remaining activity at 0.15 µM (CDK7/cyclin H; 0.15 μM, read-out: % Enzyme Activity (Relative to DMSO Controls) CDK7/cyclin H): 19.9%
IC50 (CDK7/cyclin H; Table 5 kinase profiling): 21.3 ± 1.01 nM
remaining activity at 0.15 µM (BTK): 97.1%
remaining activity at 0.15 µM (BRAF): 77.6%
remaining activity at 0.15 µM (JNK1): 39.2%
remaining activity at 0.15 µM (CDK5/p35; 0.15 μM, read-out: % Enzyme Activity (Relative to DMSO Controls) CDK5/p35): 9.6%
IC50 (CDK5/p35; Table 5 kinase profiling): 9.64 ± 0.81 nM
remaining activity at 0.15 µM (FLT3 (F594_R595insREY); 0.15 μM, read-out: % Enzyme Activity (Relative to DMSO Controls) FLT3 (F594_R595insREY)): 0.8%
IC50 (FLT3 (F594_R595insREY); Table 5 kinase profiling): 1.38 ± 0.11 nM
remaining activity at 0.15 µM (FLT3 (D835Y); 0.15 μM, read-out: % Enzyme Activity (Relative to DMSO Controls) FLT3 (D835Y)): 0.27%
IC50 (FLT3 (D835Y); Table 5 kinase profiling): 0.75 ± 0.04 nM
remaining activity at 0.15 µM (SYK): 35.4%
remaining activity at 0.15 µM (Aurora A): 38%
remaining activity at 0.15 µM (FLT4/VEGFR3; 0.15 μM, read-out: % Enzyme Activity (Relative to DMSO Controls) FLT4/VEGFR3): 3.62%
IC50 (FLT4/VEGFR3; Table 5 kinase profiling): 4.16 ± 0.19 nM
remaining activity at 0.15 µM (ERK7/MAPK15; 0.15 μM, read-out: % Enzyme Activity (Relative to DMSO Controls) ERK7/MAPK15): 2.96%
IC50 (ERK7/MAPK15; Table 5 kinase profiling): 9.57 ± 0.23 nM
remaining activity at 0.15 µM (FLT3 (F594_R595insR); 0.15 μM, read-out: % Enzyme Activity (Relative to DMSO Controls) FLT3 (F594_R595insR)): 0.47%
IC50 (FLT3 (F594_R595insR); Table 5 kinase profiling): 0.63 ± 0.09 nM
remaining activity at 0.15 µM (FLT3 (ITD)-W51; 0.15 μM, read-out: % Enzyme Activity (Relative to DMSO Controls) FLT3 (ITD)-W51): 0.51%
IC50 (FLT3 (ITD)-W51; Table 5 kinase profiling): 0.94 ± 0.09 nM
remaining activity at 0.15 µM (FLT1/VEGFR1; 0.15 μM, read-out: % Enzyme Activity (Relative to DMSO Controls) FLT1/VEGFR1): 6.08%
IC50 (FLT1/VEGFR1; Table 5 kinase profiling): 12.4 ± 0.19 nM
IC50 ([1]; Table 5 kinase profiling, read-out: IC50 FLT3 (Y591-V592ins[…])): 0.66 ± 0.08 nM
remaining activity at 0.15 µM ([1]; read-out: % Enzyme Activity (Relative to DMSO Controls) FLT3 (Y591-V592insVDFREYEYD), 0.15 μM, read-out: % Enzyme Activity (Relative to DMSO Controls) FLT3 (Y591-V592ins[…])): 0.54%
remaining activity at 0.15 µM (c-MET): 99%
